Results reported in patent publication US11466012B2, “Tetrahydroisoquinoline compounds” (ALLINKY BIOPHARMA, priority 2018, dated 2022).
Blank lines part the entries; values can stand above or below the compound they belong to.

Legend:
[1] = tested on: NCI-H358 human lung cancer xenograft; test: Subcutaneous NCI-H358 human lung cancer xenograft model in NOD/SCID mice; type: in vivo; conditions: for Mean tumor volume: PG-D22 (Day 22 after first dosing), Compound 18 10 mg/kg Bid x 22 day, cisplatin 3.5 mg/kg BIW x 3.5 week, vehicle 630 mm^3; for Mean tumor volume / Tumor growth inhibition (TGI) / Number of mice (of 6) whose body weight loss (BWL) reached 10%: i.p.; for Tumor growth inhibition (TGI) / Anti-tumor effect compared with vehicle group: PG-D22; for Tumor growth inhibition (TGI): TGI=100x(1-T/C), Compound 18 10 mg/kg Bid; for Tumor growth inhibition (TGI) / Number of mice (of 6) whose body weight loss (BWL) reached 10%: cisplatin 3.5 mg/kg BIW; for Anti-tumor effect compared with vehicle group: group-2 p=0.026, group-3 p=0.019; for Number of mice (of 6) whose body weight loss (BWL) reached 10%: tumor bearing mice, compound 18 10 mg/kg Bid; for Tolerability / safety in tumor bearing mice: 10 mg/kg b.i.d. i.p.
Text: Evaluation of the Efficacy of compound 18 in the Treatment of Subcutaneous NCI-H358 Human Lung Cancer Xenograft Model in NOD/SCID Mice
The treatments were started when the mean tumor size reached 141 mm^3. The test article administration and the animal numbers in each study group are shown in the following experimental design table.
Tumor growth inhibition (TGI): TGI (%) is an indication of antitumor effectiveness, and expressed as: TGI (%)=100×(1−T/C). T and C were the mean tumor volume of the treated and control groups, respectively, on a given day.

[2] = tested on: A549 lung carcinoma cell line bearing KRas^G12S oncogenic mutation; test: Cell proliferation inhibition (MTS), A549; type: cell-based; conditions: Homo sapiens, 72 h incubation, MTS, compounds 1-53, median from experimental results
Procedure: (§1) • Cell line #1: A549. Lung carcinoma cell line bearing KRas^G12S oncogenic mutation • Cell line #2: H358. non-small cell lung cancer line bearing KRas^G12C oncogenic mutation • Cell line #3: PANC-1. epithelioid carcinoma of the pancreas cell line bearing KRas^G12D oncogenic mutation • Cell line #4: RPMI. myeloma cell line bearing KRas^G12A oncogenic mutation
(§2) Cell lines were cultured in DMEM or RPMI-1640 supplemented with FBS 10%. In order to assess the antiproliferative effect of compounds, cells were seeded at a density of 1.8×10^3, 6.2×10^3, 7.8×10^3, 21×10^3 and 2×10^3 cells/cm^2, respectively, in tissue culture microplates and were incubated in humidified atmosphere at 5% CO2. 24 h later, compounds dissolved in DMSO 100% were added for different final concentrations ranging between 0.1 and 50 μM for a final DMSO concentration of 0.5% and the plates were incubated for another 72 h. After incubation, proliferation was quantified using CellTiter 96® Aqueous Non-Radioactive Cell Proliferation Assay-MTS (Promega #G5421) following manufacturer instructions. Amount of 490 nm absorbance is directly proportional to the number of living cells. Absorbance was recorded with a BMG Fluostar Optima Microplate Reader and normalized to control with vehicle.

[3] = tested on: H358 non-small cell lung cancer line bearing KRas^G12C oncogenic mutation; test: Cell proliferation inhibition (MTS), H358; type: cell-based; conditions: Homo sapiens, NCI-H358; 72 h incubation, MTS; compounds 1-53, median from experimental results
Procedure: as §1, §2

[4] = tested on: PANC-1 epithelioid carcinoma of the pancreas cell line bearing KRas^G12D oncogenic mutation; test: Cell proliferation inhibition (MTS), PANC-1; type: cell-based; conditions: Homo sapiens, 72 h incubation, MTS, compounds 1-53, median from experimental results
Procedure: as §1, §2

[5] = tested on: RPMI-8226 myeloma cell line bearing KRas^G12A oncogenic mutation; test: Cell proliferation inhibition (MTS), RPMI-8226; type: cell-based; conditions: Homo sapiens, 72 h incubation, MTS, compounds 1-53, median from experimental results
Procedure: as §1, §2

[6] = tested on: NIH-H358 cell line; test: 3D CellTiter-Glo cell viability assay; type: cell-based; conditions: 168 h, 7 days' compound treatment, 0.65% methylcellulose
Procedure: The protocol to perform 3D CellTiter-Glo™ cell viability assay is as follows:
Day −1: Cell Plating • Adjust cell concentrations to 1×10^5 cells/ml with respective medium. (Cell concentration is adjusted according to data base or density optimization assay). Mix 3.5 mL of cell suspension 6.5 mL of 1% methylcellulose. Mix and wait for bubbles to disperse before pipetting. This step yields 10 ml of cell suspension in 0.65% methylcellulose solution. Add 99.5 μL cell suspensions to 96-well plates according to plate map with final cell density. • Two duplicate plates will be set up. One is for day 0 reading (T0) and the other will be cultured in incubator for reading at the end point. • Incubate the plates overnight in humidified incubator at 37° C. with 5% CO2.
Day 0: T0 plate reading and compound treatment • Take T0 plate, add 0.5 μL culture medium to each well for T0 reading. • Add 100 μl CellTiter-Glo® Reagent to each well. • Mix contents for 2 minutes on an orbital shaker to facilitate cell lysis. • Allow the plate to incubate at room temperature for 10 minutes to stabilize luminescent signal. • Record luminescence using EnVision Multi Label Reader. • Dilute the test articles at the concentration indicated at Test Articles Dilution. Add 0.5 μL of each 200× compound working solutions according to plate inoculation map.
Day 7: Plate reading of 7 days' compound treatment • Add 100 μL CellTiter-Glo® Reagent to each well. • Mix contents for 2 minutes on an orbital shaker to facilitate cell lysis. • Allow the plate to incubate at room temperature for 10 minutes to stabilize luminescent signal. • Record luminescence using EnVision Multi Label Reader.

[7] = molecular target: KRas (Homo sapiens, UniProt P01116); test: Equilibrium dissociation constant by surface plasmon resonance; type: binding; conditions: SPRi, immobilised KRas, 4° C.
KRas, sequence (P01116 1-188 isoform P01116-2): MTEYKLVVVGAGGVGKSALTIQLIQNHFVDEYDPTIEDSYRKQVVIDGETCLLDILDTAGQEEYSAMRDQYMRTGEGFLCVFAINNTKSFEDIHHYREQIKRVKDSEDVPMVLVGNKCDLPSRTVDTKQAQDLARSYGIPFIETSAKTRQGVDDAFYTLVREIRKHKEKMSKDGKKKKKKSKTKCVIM
Procedure: Various concentrations of KRas dissolved in water were manually printed onto bare gold-coated (thickness 47 nm) PlexArray Nanocapture Sensor Chips (Plexera Bioscience, Seattle, Wash., US) at 40% humidity. Each concentration was printed in replicate, and each spot contained 0.2 μL of KRas solution. The chip was incubated in 80% humidity at 4° C. for overnight, and rinsed with 10×PBST for 10 min, 1×PBST for 10 min, and deionized water twice for 10 min. The chip was then blocked with 5% (w/v) non-fat milk in water overnight, and washed with 10×PBST for 10 min, 1×PBST for 10 min, and deionized water twice for 10 min before being dried under a stream of nitrogen prior to use. SPRi measurements
were performed with PlexAray HT (Plexera Bioscience, Seattle, Wash., US). Collimated light (660 nm) passes through the coupling prism, reflects off the SPR-active gold surface, and is received by the CCD camera. Buffers and samples were injected by a non-pulsatile piston pump into the 30 μL flowcell that was mounted on the coupling prim. […] The signal changes after binding and washing (in AU) are recorded as the assay value. Selected protein-grafted regions in the SPR images were analyzed, and the average reflectivity variations of the chosen areas were plotted as a function of time. Real-time binding signals were recorded and analyzed by Data Analysis Module (DAM, Plexera Bioscience, Seattle, Wash., US). […]

- IC50 [2]: 3520 nM
- IC50 [3]: 3100 nM
- IC50 [4]: 1830 nM
- IC50 [5]: 1740 nM
- IC50 [6]: 620 nM
SMILES: CCNC(=O)N1CCc2cc(OC)c(OCCc3cccc(O)c3)cc2C1c1ccc(C)cc1C (centres unmarked) [Compound 17]

- IC50 [2]: 600 nM
- IC50 [3]: 700 nM
- IC50 [4]: 700 nM
- IC50 [5]: 500 nM
- IC50 [6]: 842 nM
SMILES: CCNC(=O)N1CCc2cc(OC)c(OCCc3cccnc3)cc2C1c1ccc(C)cc1C (centres unmarked) [Compound 46]

- IC50 [2]: 800 nM
- IC50 [3]: 800 nM
- IC50 [4]: 500 nM
- IC50 [5]: 800 nM
- IC50 [6]: 373 nM
SMILES: CCNC(=O)N1CCc2cc(OC)c(OCCc3cccc(N)c3)cc2C1c1ccc(C)cc1C (centres unmarked) [Compound 50]

- IC50 [2]: 500 nM
- IC50 [3]: 600 nM
- IC50 [4]: 500 nM
- IC50 [5]: 600 nM
- IC50 [6]: 334 nM
SMILES: CCNC(=O)N1CCc2cc(OC)c(OCCc3cnccn3)cc2C1c1ccc(C)cc1C (centres unmarked) [Compound 51]

The remaining lines, values behind:

SMILES: N.N.[Cl][Pt][Cl] [Cisplatin, reference compound]
- Mean tumor volume [1]: 231 mm^3
- Tumor growth inhibition (TGI) [1]: about 63%
- Anti-tumor effect compared with vehicle group [1]: significant anti-tumor effects
- Number of mice (of 6) whose body weight loss (BWL) reached 10% [1]: 4

SMILES: COc1cc2c(cc1OCCc1cccc(O)c1)C(c1ccc(C)cc1C)N(C(=O)NCc1cocn1)CC2 (centres unmarked) [Compound 18, 1-(2,4-dimethylphenyl)-7-(3-hydroxyphenethoxy)-6-methoxy-N-(oxazol-4-ylmethyl)-3,4-dihydroisoquinoline-2(1H)-carboxamide]
- Tolerability / safety in tumor bearing mice [1]: tolerate
- Tolerability / safety in tumor bearing mice ([1]; listed as compound 18): safe
- Mean tumor volume [1]: 238 mm^3
- Tumor growth inhibition (TGI) [1]: about 62%
- Anti-tumor effect compared with vehicle group [1]: significant anti-tumor effects
- Anti-tumor effect compared with vehicle group ([1]; listed as compound 18): significant anti-tumor activities
- Number of mice (of 6) whose body weight loss (BWL) reached 10% [1]: one
- IC50 [2]: 1970 nM
- IC50 [3]: 1660 nM
- IC50 [4]: 1590 nM
- IC50 [5]: 1210 nM
- Kd [7]: 8.8 nM
- koff ([7]; read-out: Kd (dissociation rate constant)): 0.00103 s⁻¹
- IC50 [6]: 370 nM

SMILES: COc1cc2c(cc1OCCc1cccnc1)C(c1ccc(C)cc1C)N(C(=O)NCc1cocn1)CC2 (centres unmarked) [Compound 23]
- IC50 [2]: 550 nM
- IC50 [3]: 590 nM
- IC50 [4]: 490 nM
- IC50 [5]: 620 nM
- IC50 [6]: 390 nM

SMILES: Cc1ccc(C2c3cc(OCCc4cccc(F)c4)c(O)cc3CCN2C(=O)NCc2cocn2)c(C)c1 (centres unmarked) [Compound 26]
- IC50 [2]: 2020 nM
- IC50 [3]: 1010 nM
- IC50 [4]: 1150 nM
- IC50 [5]: 790 nM
- IC50 [6]: 9350 nM

SMILES: Cc1ccc(C2c3cc(OCCc4cccnc4)c(C)cc3CCN2C(=O)NCc2cocn2)c(C)c1 (centres unmarked) [Compound 42]
- IC50 [2]: 490 nM
- IC50 [3]: 1210 nM
- IC50 [4]: 620 nM
- IC50 [5]: 320 nM
- IC50 [6]: 10100 nM
